Assay results reported in US20260234211A1, “POLYPEPTIDE HAVING MODIFIED STRUCTURE AND USE THEREOF” (Guangdong Raynovent Biotech Co., Ltd., priority 2023, published 2026).
Like-named read-outs stand apart in the source and are kept apart here. Numbered stars: 1 amine (or outer) side, 2 acyl side, 3 side chain; on linkers, the order of the positions; unused ones are H or OH. Bridge positions count the residues as written; N and C are the ends. Square brackets hold non-standard residues; d marks the D form. Peptide text beside a SMILES is read from it. X2 = O=C(O)CCCCCCCCCCCCCCCCCCC(=O)N[C@@H](CCC(=O)NCCOCCOCC(=O)N[C@@H](CCC(=O)[*:2])C(=O)[*:1])C(=O)O; αMeL = CC(C)C[C@](C)(N)C(=O)O; Aib = CC(C)(N)C(=O)O

Experiments:
[1] = Metabolic stability in human kidney S9; type: in vitro ADME
Protocol: The metabolic stability of the compounds in human kidney was evaluated to determine whether the drugs would be degraded by metabolic enzymes in the kidney to affect the efficacies and pharmacokinetics. 1. Relevant solutions were formulated. 2. a) With cofactors (NADPH & UDPGA): NADPH and UDPGA were added during the incubation. […] H2O was added into the culture solution. The final concentration of KS9 Fractions was 1 mg/mL. The mixture was pre-heated at 37° C. for 10 min. […] In this study, 7-hydroxy-coumarin and Raloxifene were used as the positive control. The final concentration of the positive control compounds was 0.2 μM, and the final concentration of the test compound was 1 μM. The culture solution was incubated in water bath at 37° C. 4. At 0.5, 5, 15, 30 and 60 min, volume aliquots were taken from the reaction solution and the reaction was stopped by adding acetonitrile. The samples were centrifuged for 30 min. The supernatant was taken and mixed with ultrapure water for subsequent LC-MS/MS analysis. 5. Data analysis: All calculation was conducted using Microsoft Excel. Peak areas were determined and slope values were calculated based on the extracted ion chromatograms.

[2] = Pharmacokinetic properties in Cynomolgus macaques; settings: cynomolgus monkey, in vivo, male cynomolgus macaques, plasma; for AUC(0-t): read-out: AUC0-240 h; for AUC(0-inf): read-out: AUCINF; for Cmax: read-out: Cmax; for half-life: read-out: T1/2 (converted); for Tmax: read-out: Tmax
Protocol: To test the pharmacokinetic profiles of the compounds in Cynomolgus macaques.
Non-juvenile male cynomolgus macaques were used for experiment, 3 cynomolgus macaques for each compound. Whole blood was collected at time points of 1 h, 2 h, 4 h, 8 h, 16 h, 24 h, 48 h, 72 h, 120 h, 168 h and 240 h after administration, to prepare plasma. The drug concentration was analyzed by LC-MS/MS method, and the pharmacokinetic parameters were calculated using Phoenix WinNonlin software.

half-life at 0.2 μM ([1]; human, s9) | microsomal CLint at 0.2 μM ([1]; human, s9) | Structure (SMILES) | AUC(0-t) [2] | AUC(0-inf) [2] | Cmax [2] | half-life [2] | Tmax [2] | also measured
– | – | CC[C@H](C)[C@H](NC(=O)[C@H](Cc1ccccc1)NC(=O)[C@@H]1CCCCNC(=O)CC[C@H](NC(=O)COCCOCCNC(=O)CC[C@H](NC(=O)CCCCCCCCCCCCCCCCCCC(=O)O)C(=O)O)C(=O)NCCCC[C@H](NC(=O)[C@H](CCCCN)NC(=O)[C@H](CC(=O)O)NC(=O)[C@H](CC(C)C)NC(=O)[C@](C)(CC(C)C)NC(=O)[C@@H](NC(=O)[C@H](CO)NC(=O)[C@H](Cc2ccc(O)cc2)NC(=O)[C@H](CC(=O)O)NC(=O)[C@H](CO)NC(=O)[C@@H](NC(=O)[C@H](Cc2ccccc2)NC(=O)[C@@H](NC(=O)CNC(=O)[C@H](CCC(N)=O)NC(=O)C(C)(C)NC(=O)[C@@H](N)Cc2ccc(O)cc2)[C@@H](C)O)[C@@H](C)O)[C@@H](C)CC)C(=O)N[C@@H](C)C(=O)N[C@@H](CCC(N)=O)C(=O)NC(C)(C)C(=O)N1)C(=O)N[C@@H](CCC(=O)O)C(=O)N[C@@H](Cc1ccc(O)cc1)C(=O)N[C@@H](CC(C)C)C(=O)N[C@@H](CC(C)C)C(=O)N[C@@H](CCC(=O)O)C(=O)NCC(=O)NCC(=O)N1CCC[C@H]1C(=O)N[C@@H](CO)C(=O)N[C@@H](CO)C(=O)NCC(=O)N[C@@H](C)C(=O)N1CCC[C@H]1C(=O)N1CCC[C@H]1C(=O)N1CCC[C@H]1C(=O)N[C@@H](CO)C(N)=O [Example 8, YAibQGT FTSDY SIα- MeLLD K^1KAQAib ^1KFIEY LLEGG PSSGA PPPS-NH2 (SEQ ID NO: 1)] (H-Y[Aib]QGTFTSDYSI[αMeL]LDKKAQ[Aib]KFIEYLLEGGPSSGAPPPS-NH2; linker 17-21 via X2 (inferred); N-terminus assumed) | – | – | – | – | – | half-life ([1]; human, s9): > 3.08 h; microsomal CLint ([1]; human, s9): < 3.75 µL/min/mg
1.56 h | 7.77 µL/min/mg | O=C(c1ccc(OCCN2CCCCC2)cc1)c1c(-c2ccc(O)cc2)sc2cc(O)ccc12 [Raloxifene, reference compound] | – | – | – | – | – | –
1.69 h | 6.84 µL/min/mg | O=c1ccc2ccc(O)cc2o1 [7-Hydroxy-courmarin, 7-hydroxy-coumarin, reference compound] | – | – | – | – | – | –
– | – | CC[C@H](C)[C@H](NC(=O)[C@H](Cc1ccccc1)NC(=O)[C@@H]1CCCCNC(=O)CN(C(=O)COCCOCCNC(=O)CC[C@H](NC(=O)CCCCCCCCCCCCCCCCCCC(=O)O)C(=O)O)CC(=O)NCCCC[C@H](NC(=O)[C@H](CCCCN)NC(=O)[C@H](CC(=O)O)NC(=O)[C@H](CC(C)C)NC(=O)[C@](C)(CC(C)C)NC(=O)[C@@H](NC(=O)[C@H](CO)NC(=O)[C@H](Cc2ccc(O)cc2)NC(=O)[C@H](CC(=O)O)NC(=O)[C@H](CO)NC(=O)[C@@H](NC(=O)[C@H](Cc2ccccc2)NC(=O)[C@@H](NC(=O)CNC(=O)[C@H](CCC(N)=O)NC(=O)C(C)(C)NC(=O)[C@@H](N)Cc2ccc(O)cc2)[C@@H](C)O)[C@@H](C)O)[C@@H](C)CC)C(=O)N[C@@H](C)C(=O)N[C@@H](CCC(N)=O)C(=O)NC(C)(C)C(=O)N1)C(=O)N[C@@H](CCC(=O)O)C(=O)N[C@@H](Cc1ccccc1)C(=O)N[C@@H](CC(C)C)C(=O)N[C@@H](CC(C)C)C(=O)N[C@@H](CCC(=O)O)C(=O)NCC(=O)NCC(=O)N1CCC[C@H]1C(=O)N[C@@H](CO)C(=O)N[C@@H](CO)C(=O)NCC(=O)N[C@@H](C)C(=O)N1CCC[C@H]1C(=O)N1CCC[C@H]1C(=O)N1CCC[C@H]1C(=O)N[C@@H](CO)C(N)=O [Example 9, YAibQGT FTSDY SIα- MeLLD K^1KAQAib ^1KFIEF LLEGG PSSGA PPPS-NH2 (SEQ ID NO: 15)] | 3.23 µM·h | 3.64 µM·h | 30.1 nM | 77.4 h | 29.3 h | –
– | – | CC[C@H](C)[C@H](NC(=O)[C@H](Cc1ccccc1)NC(=O)[C@@H]1CCCCNC(=O)CN(C(=O)[C@@H](N)CCCCNC(=O)[C@@H](N)CCCCNC(=O)CC[C@H](NC(=O)CCCCCCCCCCCCCCCCCCC(=O)O)C(=O)O)CC(=O)NCCCC[C@H](NC(=O)[C@H](CCCCN)NC(=O)[C@H](CC(=O)O)NC(=O)[C@H](CC(C)C)NC(=O)[C@](C)(CC(C)C)NC(=O)[C@@H](NC(=O)[C@H](CO)NC(=O)[C@H](Cc2ccc(O)cc2)NC(=O)[C@H](CC(=O)O)NC(=O)[C@H](CO)NC(=O)[C@@H](NC(=O)[C@H](Cc2ccccc2)NC(=O)[C@@H](NC(=O)CNC(=O)[C@H](CCC(N)=O)NC(=O)C(C)(C)NC(=O)[C@@H](N)Cc2ccc(O)cc2)[C@@H](C)O)[C@@H](C)O)[C@@H](C)CC)C(=O)N[C@@H](C)C(=O)N[C@@H](CCC(N)=O)C(=O)NC(C)(C)C(=O)N1)C(=O)N[C@@H](CCC(=O)O)C(=O)N[C@@H](Cc1ccc(O)cc1)C(=O)N[C@@H](CC(C)C)C(=O)N[C@@H](CC(C)C)C(=O)N[C@@H](CCC(=O)O)C(=O)NCC(=O)NCC(=O)N1CCC[C@H]1C(=O)N[C@@H](CO)C(=O)N[C@@H](CO)C(=O)NCC(=O)N[C@@H](C)C(=O)N1CCC[C@H]1C(=O)N1CCC[C@H]1C(=O)N1CCC[C@H]1C(=O)N[C@@H](CO)C(N)=O [Example 7, YAibQGT FRSDY SIα- MeLLD K^1KAQAib ^1KFIEY LLEGG PSSGA PPPS-NH2 (SEQ ID NO: 1)] | 3.32 µM·h | 3.96 µM·h | 24.3 nM | 84.1 h | 29.3 h | microsomal CLint ([1]; Human kidney S9 1 mg/mL, +Cofactors (NADPH & UDPGA), 37° C., read-out: in vitro CLint): < 3.75 µL/min/mg; half-life ([1]; Human kidney S9 1 mg/mL, +Cofactors (NADPH & UDPGA), 37° C., read-out: in vitro t1/2): > 3.08 h
– | – | CC[C@H](C)[C@@H]1NC(=O)[C@H](Cc2ccccc2)NC(=O)[C@H](C)NC(=O)C(C)(C)NC(=O)[C@H](CCC(N)=O)NC(=O)[C@H](C)NC(=O)[C@@H](NC(=O)[C@H](CCCCN)NC(=O)[C@H](CC(=O)O)NC(=O)[C@H](CC(C)C)NC(=O)[C@](C)(CC(C)C)NC(=O)[C@@H](NC(=O)[C@H](CO)NC(=O)[C@H](Cc2ccc(O)cc2)NC(=O)[C@H](CC(=O)O)NC(=O)[C@H](CO)NC(=O)[C@@H](NC(=O)[C@H](Cc2ccccc2)NC(=O)[C@@H](NC(=O)CNC(=O)[C@H](CCC(N)=O)NC(=O)C(C)(C)NC(=O)[C@@H](N)Cc2ccc(O)cc2)[C@@H](C)O)[C@@H](C)O)[C@@H](C)CC)CCCCNC(=O)CN(C(=O)COCCOCCNC(=O)COCCOCCNC(=O)CC[C@H](NC(=O)CCCCCCCCCCCCCCCCCCC(=O)O)C(=O)O)CC(=O)NCCCC[C@@H](C(=O)N[C@@H](Cc2ccc(O)cc2)C(=O)N[C@@H](CC(C)C)C(=O)N[C@@H](CC(C)C)C(=O)N[C@@H](CCC(=O)O)C(=O)NCC(=O)NCC(=O)N2CCC[C@H]2C(=O)N[C@@H](CO)C(=O)N[C@@H](CO)C(=O)NCC(=O)N[C@@H](C)C(=O)N2CCC[C@H]2C(=O)N2CCC[C@H]2C(=O)N2CCC[C@H]2C(=O)N[C@@H](CO)C(N)=O)NC1=O [Example 11, YAibQGT FTSDY SIα- MeLLD K^1KAQAib AFI^1KY LLEGG PSSGA PPPS-NH2 (SEQ ID NO: 17)] | – | – | – | – | – | half-life at 1 μM ([1]; human, s9): > 3.08 h; microsomal CLint at 1 μM ([1]; human, s9): < 3.75 µL/min/mg
